The values below come from PubChem BioAssay (NCI).

Among the test systems are COLO 205 colon; SK-MEL-28 melanoma; HOP-62 NSCLC; M14 melanoma; NCI/ADR-RES ovarian; MCF7 breast; TK-10 renal; SF-539 CNS; IGROV1 ovarian; UO-31 renal; OVCAR-3 ovarian; RXF 393 renal; SNB-75 CNS; HOP-92 NSCLC; UACC-62 melanoma; HL-60(TB) leukemia; SK-MEL-5 melanoma; NCI-H226 lung.
Test in all cases: DTP human tumour cell line panel, 48 h

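Five compound concentrations were applied to cells in 96-well plates for 48 hours; endpoints were derived by simple linear interpolation of the resulting dose-response curve. The concentration for full growth arrest is given as TGI.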

For `CCOC(=O)C1=C(C(=O)OCC)SC2(S1)C(C(=O)OCC)=C(C(=O)OCC)Sc1c2ssc1=O`, the TGI (in general, the concentration giving total growth inhibition) with COLO 205 colon came to 5.15 µM; in the experiment on SK-MEL-28 melanoma it was 3.93 µM; in the experiment on HOP-62 NSCLC, 3.21 µM; with M14 melanoma it was 4.94 µM; in the experiment on NCI/ADR-RES ovarian, 7.64 µM; in the experiment with MCF7 breast it was 3.5 µM. Moreover, the total growth inhibition concentration (TGI) in the experiment on TK-10 renal worked out at 3.16 µM; in the experiment with SF-539 CNS, 2.4 µM; with IGROV1 ovarian, 2.57 µM; with UO-31 renal it was 3.25 µM; with OVCAR-3 ovarian, 3.16 µM; in the experiment with RXF 393 renal it was 2.47 µM. Further, the TGI with SNB-75 CNS worked out at 3.94 µM; in the experiment with HOP-92 NSCLC it was 2.81 µM; in the experiment on UACC-62 melanoma it was 3.68 µM; in the experiment on HL-60(TB) leukemia, 1.06 µM; in the experiment on SK-MEL-5 melanoma, 5.29 µM; in the experiment on NCI-H226 lung, 42.2 µM.
Turning to `CC(NNC(=O)c1ccncc1)c1ccccc1` (stereo not drawn), the TGI in the experiment on COLO 205 colon, with SK-MEL-28 melanoma, with HOP-62 NSCLC, in the experiment on M14 melanoma, in the experiment with NCI/ADR-RES ovarian and in the experiment with MCF7 breast was over 100 µM each time. The TGI with TK-10 renal, with SF-539 CNS, in the experiment with IGROV1 ovarian, in the experiment on UO-31 renal, with OVCAR-3 ovarian and in the experiment with RXF 393 renal was over 100 µM throughout. The TGI with SNB-75 CNS, with HOP-92 NSCLC, with UACC-62 melanoma, in the experiment with HL-60(TB) leukemia, in the experiment on SK-MEL-5 melanoma and in the experiment with NCI-H226 lung was over 100 µM throughout.
On to `CC(=O)Nc1ccc(S(=O)(=O)c2nnc(NC(C)=O)s2)cc1`, for which the TGI is 0.537 µM with COLO 205 colon; over 100 µM with SK-MEL-28 melanoma; over 100 µM in the experiment on HOP-62 NSCLC; over 100 µM with M14 melanoma; over 100 µM with NCI/ADR-RES ovarian; over 100 µM in the experiment with MCF7 breast. Moreover, the TGI in the experiment on TK-10 renal, with SF-539 CNS, in the experiment on IGROV1 ovarian, with UO-31 renal, with OVCAR-3 ovarian and in the experiment with RXF 393 renal was over 100 µM throughout. Moreover, the TGI with SNB-75 CNS, with HOP-92 NSCLC, with UACC-62 melanoma, in the experiment with HL-60(TB) leukemia, with SK-MEL-5 melanoma and in the experiment on NCI-H226 lung was over 100 µM in each case.
Take `O=C(CCN1CCCCC1)Nc1ccc2c(c1)C(=O)c1ccc(NC(=O)CCN3CCCCC3)cc1C2=O`: the TGI came to 24 µM in the experiment on COLO 205 colon; 32.8 µM in the experiment with SK-MEL-28 melanoma; 6.67 µM in the experiment with HOP-62 NSCLC; 10.1 µM in the experiment on M14 melanoma; 25.8 µM with NCI/ADR-RES ovarian; 5.91 µM with MCF7 breast. Further, the TGI in the experiment with TK-10 renal amounted to 21.2 µM; in the experiment with SF-539 CNS, 7.13 µM; in the experiment with IGROV1 ovarian it was 13.2 µM; in the experiment on UO-31 renal, 32.8 µM; with OVCAR-3 ovarian, 20.9 µM; in the experiment with RXF 393 renal, 17.6 µM. Moreover, the TGI was 8 µM in the experiment with SNB-75 CNS; 29.2 µM in the experiment on HOP-92 NSCLC; 34.7 µM with UACC-62 melanoma; 20.8 µM in the experiment on HL-60(TB) leukemia; 10.2 µM with SK-MEL-5 melanoma; 29.6 µM with NCI-H226 lung.
With `CCCC(=O)OCC1OC(n2cc(F)c(=O)[nH]c2=O)C(F)C1O` (stereo not drawn), the TGI in the experiment on COLO 205 colon, in the experiment with SK-MEL-28 melanoma, in the experiment with HOP-62 NSCLC, in the experiment on M14 melanoma, in the experiment with NCI/ADR-RES ovarian and in the experiment with MCF7 breast was over 100 µM each time. For the same compound, the TGI with TK-10 renal is over 100 µM; in the experiment on SF-539 CNS, over 31.6 µM; in the experiment with IGROV1 ovarian it was over 100 µM; in the experiment on UO-31 renal, over 100 µM; with OVCAR-3 ovarian it was over 100 µM; with RXF 393 renal, over 100 µM. The TGI with SNB-75 CNS, in the experiment with HOP-92 NSCLC, with UACC-62 melanoma, in the experiment on HL-60(TB) leukemia, in the experiment with SK-MEL-5 melanoma and with NCI-H226 lung was over 100 µM each time.
As for `NC1CCN(c2nc3ccccc3c3c2CCCC3)CC1`, the TGI in the experiment with COLO 205 colon was 3.22 µM; in the experiment with SK-MEL-28 melanoma, 10.6 µM; with HOP-62 NSCLC it was 35.1 µM; in the experiment with M14 melanoma it was 3.84 µM; in the experiment on NCI/ADR-RES ovarian it was 28.8 µM; in the experiment with MCF7 breast it was 8.6 µM. The TGI turned out to be 23.2 µM in the experiment on TK-10 renal; 11.8 µM in the experiment on SF-539 CNS; 19.5 µM in the experiment on IGROV1 ovarian; 12.2 µM in the experiment on UO-31 renal; 28.1 µM in the experiment with OVCAR-3 ovarian; 11.2 µM in the experiment on RXF 393 renal. The TGI in the experiment with SNB-75 CNS was determined as 22.1 µM; in the experiment on HOP-92 NSCLC, 17.2 µM; in the experiment with UACC-62 melanoma, 3.8 µM; in the experiment with HL-60(TB) leukemia, 8.84 µM; in the experiment on SK-MEL-5 melanoma, 7.01 µM; in the experiment on NCI-H226 lung, 24.3 µM.
`C/C(=C/CC[C@](C)(OC1OC(CO)C(O)C(O)C1O)[C@H]1CC[C@]2(C)[C@@H]1CC[C@@H]1[C@@]3(C)CC[C@H](O)C(C)(C)[C@@H]3C[C@H](O)[C@]12CO)CO` (stereo partly drawn): the TGI with COLO 205 colon, in the experiment on SK-MEL-28 melanoma, with HOP-62 NSCLC, with M14 melanoma, in the experiment on NCI/ADR-RES ovarian and with MCF7 breast was over 100 µM throughout. Besides, the TGI in the experiment with TK-10 renal, in the experiment on SF-539 CNS, in the experiment on IGROV1 ovarian, in the experiment on UO-31 renal, with OVCAR-3 ovarian and in the experiment with RXF 393 renal was over 100 µM throughout. The TGI in the experiment with SNB-75 CNS, in the experiment on HOP-92 NSCLC, with UACC-62 melanoma, in the experiment on HL-60(TB) leukemia, in the experiment on SK-MEL-5 melanoma and in the experiment with NCI-H226 lung was over 100 µM each time.
For the compound `FC(F)(F)c1ccc2c(-c3cc[nH]c3)ccnc2c1`, the TGI is 43.8 µM in the experiment on COLO 205 colon; over 100 µM with SK-MEL-28 melanoma; over 100 µM with HOP-62 NSCLC; over 100 µM with M14 melanoma; over 100 µM in the experiment on NCI/ADR-RES ovarian; over 100 µM in the experiment with MCF7 breast. For the same compound, the TGI was 70.1 µM with TK-10 renal; over 100 µM with SF-539 CNS; over 100 µM in the experiment with IGROV1 ovarian; 48.3 µM in the experiment on UO-31 renal; 88 µM in the experiment on OVCAR-3 ovarian; 46.2 µM in the experiment on RXF 393 renal. The TGI in the experiment on SNB-75 CNS is 33.8 µM; in the experiment on HOP-92 NSCLC, over 100 µM; in the experiment with UACC-62 melanoma, over 100 µM; with HL-60(TB) leukemia it was 42.2 µM; with SK-MEL-5 melanoma it was 43.3 µM; in the experiment with NCI-H226 lung, over 100 µM.
`NC(=O)c1ncn(C2C=CC(CP(=O)(O)O)C2)c1N` (stereo not drawn): the TGI in the experiment with COLO 205 colon, in the experiment on SK-MEL-28 melanoma, in the experiment with HOP-62 NSCLC, in the experiment on M14 melanoma, in the experiment with NCI/ADR-RES ovarian and in the experiment with MCF7 breast was over 100 µM throughout. For the same compound, the TGI in the experiment on TK-10 renal, with SF-539 CNS, with IGROV1 ovarian, in the experiment with UO-31 renal, with OVCAR-3 ovarian and in the experiment with RXF 393 renal was over 100 µM in each case. Further, the TGI in the experiment on SNB-75 CNS, in the experiment on HOP-92 NSCLC, in the experiment with UACC-62 melanoma, in the experiment on HL-60(TB) leukemia, with SK-MEL-5 melanoma and in the experiment on NCI-H226 lung was over 100 µM in each case.
Turning to `O=c1c2ccccc2n2c(-c3ccccc3O)nnc2n1-c1ccccc1`, the TGI with COLO 205 colon, in the experiment on SK-MEL-28 melanoma, with HOP-62 NSCLC, with M14 melanoma, in the experiment with NCI/ADR-RES ovarian and in the experiment on MCF7 breast was over 100 µM each time. Moreover, the TGI in the experiment with TK-10 renal was over 100 µM; in the experiment with SF-539 CNS, over 100 µM; in the experiment with IGROV1 ovarian, over 100 µM; with UO-31 renal, 5.72 µM; in the experiment with OVCAR-3 ovarian it was over 100 µM; with RXF 393 renal it was over 100 µM. Moreover, the TGI with SNB-75 CNS, in the experiment with HOP-92 NSCLC, in the experiment with UACC-62 melanoma, in the experiment on HL-60(TB) leukemia, in the experiment with SK-MEL-5 melanoma and in the experiment with NCI-H226 lung was over 100 µM throughout.
In the case of `CC(=O)C1C(=O)C(=O)N(c2ccc([N+](=O)[O-])cc2[N+](=O)[O-])C1=O` (stereo not drawn), the TGI in the experiment on COLO 205 colon, with SK-MEL-28 melanoma, in the experiment on HOP-62 NSCLC, in the experiment on M14 melanoma, with NCI/ADR-RES ovarian and in the experiment on MCF7 breast was over 100 µM in each case. Moreover, the TGI in the experiment on TK-10 renal, in the experiment with SF-539 CNS, in the experiment with IGROV1 ovarian, with UO-31 renal, in the experiment with OVCAR-3 ovarian and in the experiment with RXF 393 renal was over 100 µM each time. The TGI with SNB-75 CNS, in the experiment on HOP-92 NSCLC, with UACC-62 melanoma, with HL-60(TB) leukemia, in the experiment with SK-MEL-5 melanoma and in the experiment on NCI-H226 lung was over 100 µM throughout.
